What all share (assay): NCI-60 cell line screen, 48 h
For test [1], the system named is CAKI-1 renal.
Test [2] deals with COLO 205 colon.
Test [3] concerns HS 578T breast.
Test [4] deals with IGROV1 ovarian.
Test [5] concerns NCI/ADR-RES ovarian.
Test [6] concerns OVCAR-8 ovarian.
Test [7] relates to RPMI-8226 leukemia.
Test [8] deals with SF-268 CNS.
Test [9] relates to SK-OV-3 ovarian.
In test [10] the test system is TK-10 renal.

Where “and” joins values, the source holds several entries; their conditions need not be identical. Equal entries are not always repeated.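 1) Cells in 96-well plates. 2) Compound, 48 h, 5 concentrations. 3) Linear interpolation between surrounding doses. 4) Unreached endpoint = highest concentration. Abbreviation: GI50, concentration required for 50% inhibition of growth. At the TGI there is no net growth.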

For `c1ccc2[nH]c(-c3cc(-c4ccc5c(c4)OCO5)n[nH]3)nc2c1`, the GI50 was 2.74 µM in test [1]; 4.78 µM in test [2]; 3.8 µM in test [3]; 3.66 µM in [4]; 4.08 µM in [5]; 3.97 µM in test [6]. Also, the GI50 in [7] is 1.14 µM; in test [8] it was 4.77 µM; in [9] it was 4.98 µM; in test [10], 10.9 µM. The TGI in test [1] stood at 17.7 µM; in test [2] it was 18.5 µM; in test [3], 52.3 µM; in test [4], 15.9 µM; in test [5] it was 27.1 µM; in test [6], 18 µM. Further, the TGI in [7] was determined as 7.16 µM; in [8], 22.4 µM; in test [9], 17.7 µM; in [10], 23.8 µM.

As for `COc1cc(OC)c(C(=O)/C=C/c2cccc(C#N)c2)c(OC)c1`, the GI50 is 2.03 µM in test [1]; 1.79 µM in test [2]; 1.59 µM in test [3]; 1.55 µM in [4]; 1.44 µM in test [5]; 1.47 µM in test [6]. For the same molecule, the GI50 in test [7] is 0.981 µM; in [8], 1.69 µM; in [9], 1.82 µM; in [10] it was 1.63 µM. Further, the TGI in [1] turned out to be 7.16 µM; in test [2] it was 6.04 µM; in test [3] it was 44.9 µM; in test [4], 5.91 µM; in test [5] it was 10.5 µM; in test [6], 6.51 µM. In addition, the TGI was 4.31 µM in test [7], 7.9 µM in test [8], over 50 µM in test [9] and 5.52 µM in [10].

As for `COc1ccc(C2=CC(c3ccc(OC)cc3Br)N3C=CSC3=N2)cc1` (stereo not given), the GI50 was 13.4 µM in [1]; 11.3 µM in [2]; 14.4 µM in test [3]; 7.31 µM in [4]; 4.43 µM in test [5]; 4.09 µM in [6]. For the same molecule, the GI50 is 1.86 µM in test [7], 13.7 µM in test [8], 6.78 µM in [9] and 13.9 µM in test [10]. In addition, the TGI in test [1] worked out at 51.4 µM; in test [2] it was 25.1 µM; in test [3] it was 66.5 µM; in test [4], 30.7 µM; in [5], 29 µM; in [6], 27.8 µM. Further, the TGI in [7] is 7.29 µM; in test [8], 48.5 µM; in [9], 27 µM; in [10], 33.3 µM.

In the case of `CC1=C(CCC(C)NCc2ccc(OCCCN3CCCCC3)cc2)C(C)(C)CCC1` (stereo not given), the GI50 in [1] was 1.82 µM; in test [2] it was 0.197 µM; in [3] it was 1.61 µM; in test [4], 1.68 µM; in test [5], 1.72 µM; in [6] it was 2.48 µM. The GI50 in test [7] was 2.29 µM; in test [8] it was 1.49 µM; in test [9], 2.06 µM; in [10] it was 1.69 µM. The TGI turned out to be 3.92 µM in test [1]; 0.427 µM in [2]; 3.79 µM in [3]; 3.89 µM in test [4]; 3.47 µM in test [5]; 5.31 µM in [6]. The TGI in test [7] stood at 5.36 µM; in test [8], 3.08 µM; in test [9], 3.76 µM; in test [10], 3.19 µM.

For the molecule `O=[N+]([O-])c1ccc(N=Nc2ccc(O)c3ccccc23)cc1`, the GI50 was 4.17 µM in test [1]; 13.2 µM in test [2]; 2.42 µM in [3]; 5.27 µM in test [4]; 2.41 µM in [5]; 3.1 µM in test [6]. Also, the GI50 in test [7] is 1.59 µM; in [8], 2.9 µM; in [9], 11.9 µM; in [10], 2.81 µM. In addition, the TGI in test [1] is over 100 µM; in test [2], 32.1 µM; in test [3], 29.9 µM; in [4], over 100 µM; in test [5], 55.8 µM; in [6], over 100 µM. For the same molecule, the TGI was 6.55 µM in [7], over 100 µM in [8], 47.7 µM in [9] and over 100 µM in test [10].

Consider `O1[As]2O[As]3O[As]1O[As](O2)O3`, for which the GI50 in [1] was 0.567 µM; in [2], 1.67 µM; in test [3], 0.981 µM; in test [4], 0.457 µM; in test [5] it was 1.43 µM; in [6] it was 1.89 µM. In addition, the GI50 in [7] was 0.29 µM; in test [8], 0.456 µM; in test [9], 2.8 µM; in test [10] it was 2.31 µM. The TGI in [1] was 3.13 µM; in [2], 4.5 µM; in [3], over 42.5 µM; in [4] it was 2.7 µM; in [5], 5.11 µM; in [6] it was 13.6 µM. Further, the TGI in test [7] was 2.89 µM; in [8] it was 1.86 µM; in [9] it was 7 µM; in test [10], 9.5 µM.

As for `NC(=O)c1ccc(-c2nc(-c3ccc4c(c3)OCO4)c(-c3ccccn3)[nH]2)cc1`, the GI50 was > 25 µM and 22.7 µM in test [1]; > 25 µM and 31.4 µM in [2]; > 25 µM and 28.2 µM in test [3]; > 25 µM and 34.2 µM in test [4]; > 25 µM and 32.3 µM in test [5]; > 25 µM and 34.1 µM in [6]. For the same molecule, the GI50 is 24.3 µM and 20.7 µM in [7]; > 25 µM and 50.7 µM in test [8]; > 25 µM and 39.5 µM in [9]; > 25 µM and 47.7 µM in test [10]. For the same molecule, the TGI in [1], in [2], in test [3], in [4], in test [5] and in test [6] was over 100 µM each time. The TGI in test [7] was over 69.6 µM; in [8] it was over 100 µM; in test [9] it was over 100 µM; in [10], over 100 µM.
